ChEMBL document CHEMBL1135154, “Optimization of the beta-aminoester class of factor Xa inhibitors. Part 1: P(4) and side-chain modifications for improved in vitro potency” (Bioorg Med Chem Lett, 2002)

How the values were obtained:
Prothrombin [1] = biological target: T1, Prothrombin (Homo sapiens, UniProt P00734); experiment: In vitro inhibitory activity against human Coagulation factor IIa
Coagulation factor X = Coagulation factor X (Homo sapiens, UniProt P00742); experiment: In vitro inhibitory activity against human Coagulation factor Xa
Sequence of Coagulation factor X (P00742 41-179 limits assumed): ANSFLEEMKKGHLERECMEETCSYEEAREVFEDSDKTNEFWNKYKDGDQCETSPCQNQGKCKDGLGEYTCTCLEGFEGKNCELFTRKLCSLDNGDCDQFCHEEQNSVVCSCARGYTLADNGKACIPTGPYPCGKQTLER
Sequence of Coagulation factor X (P00742 235-488 limits assumed): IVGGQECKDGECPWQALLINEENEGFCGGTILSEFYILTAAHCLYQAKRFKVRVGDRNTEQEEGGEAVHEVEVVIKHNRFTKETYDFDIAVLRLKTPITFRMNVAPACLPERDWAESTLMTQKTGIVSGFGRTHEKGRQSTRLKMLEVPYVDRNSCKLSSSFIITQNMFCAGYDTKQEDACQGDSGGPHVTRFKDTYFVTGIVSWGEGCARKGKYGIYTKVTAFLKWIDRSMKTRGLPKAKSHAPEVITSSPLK

Serine protease 1 = Serine protease 1 (Homo sapiens, UniProt P07477); experiment: In vitro inhibitory activity against human trypsin
Sequence of Serine protease 1 (P07477 whole entry): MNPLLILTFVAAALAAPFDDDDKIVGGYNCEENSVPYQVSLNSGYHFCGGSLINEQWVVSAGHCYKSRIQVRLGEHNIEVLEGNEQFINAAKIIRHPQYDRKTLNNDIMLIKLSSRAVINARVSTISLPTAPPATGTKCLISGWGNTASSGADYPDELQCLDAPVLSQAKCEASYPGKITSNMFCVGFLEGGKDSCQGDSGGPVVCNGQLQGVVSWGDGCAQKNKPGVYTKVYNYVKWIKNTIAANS

[2] = Activated partial thromboplastin times (APTT) was determined in human plasma; type: functional
[3] = Activated partial thromboplastin times (APTT) was determined in rat plasma; type: functional
Prothrombin [4] = biological target: T1, Prothrombin; experiment: Ratio of human Coagulation factor IIa to that of human Coagulation factor Xa was evaluated
[5] = Activated partial thromboplastin times (APTT) was determined int human plasma; type: functional

Structure (SMILES) | Ki (Prothrombin [1]) [nM] | Ki (Coagulation factor X) [nM] | Ki (Serine protease 1) [nM] | APTT [2] [µM] | APTT [3] [µM] | Ki ratio (IIa/Xa) (Prothrombin [4]) | APTT [5] [µM]
CCOC(=O)NCc1cccc(-c2ccc(C(=O)N[C@H](C)[C@@H](Cc3cccc(C(=N)N)c3)C(=O)OC)cc2)c1 | > 4000 | > 1200 | > 2900 |  |  |  | 
COC(=O)[C@@H](CNC(=O)c1ccc(-c2ccccc2)cc1)Cc1cccc(C(=N)N)c1 | > 3950 | 20 | 230 |  |  |  | 
COC(=O)[C@H](Cc1cccc(C(=N)N)c1)[C@@H](/C=C/c1ccccc1)NC(=O)c1ccc(-c2ccccc2)cc1 | 954 | 9.4 |  |  |  |  | 
COC(=O)[C@H](Cc1cccc(C(=N)N)c1)[C@@H](Cc1ccccc1)NC(=O)c1ccc(-c2ccccc2)cc1 | 709 | 11 | 75 |  |  |  | 
COC(=O)[C@H](Cc1cccc(C(=N)N)c1)[C@@H](C)NC(=O)c1ccc(-c2cccc(C(N)=O)c2)cc1 | > 4000 |  | 90 |  |  |  | 
COC(=O)[C@H](Cc1cccc(C(=N)N)c1)[C@H](NC(=O)c1ccc(-c2cccc(CN)c2)cc1)C(C)C | > 3950 | 8 | 300 |  |  |  | 
COC(=O)[C@H](Cc1cccc(C(=N)N)c1)[C@@H](CC(C)C)NC(=O)c1ccc(-c2cccc(CN)c2)cc1 | 990 | 0.4 | 38 |  |  |  | 
COC(=O)[C@H](Cc1cccc(C(=N)N)c1)[C@@H](C)NC(=O)c1ccc(-c2ccccc2)cc1 |  | 5.3 | 69 | 3.9 | 5.05 | ~3250 | 
COC(=O)[C@H](Cc1cccc(C(=N)N)c1)[C@@H](CC1CCCCC1)NC(=O)c1ccc(-c2cccc(CN)c2)cc1 | 650 | 4 | 36 |  |  |  | 
COC(=O)[C@H](Cc1cccc(C(=N)N)c1)[C@@H](C)NC(=O)c1ccc(-c2ccc(C(N)=O)cc2)cc1 | > 4000 | 2 | 42 |  |  |  | 
COC(=O)[C@H](Cc1cccc(C(=N)N)c1)[C@@H](CCc1ccccc1)NC(=O)c1ccc(-c2ccccc2)cc1 | 810 | 21 | 67 |  |  |  | 
COC(=O)[C@H](Cc1cccc(C(=N)N)c1)[C@@H](C)NC(=O)c1ccc(-c2ccc(C(=O)O)cc2)cc1 | > 4000 | 69 |  |  |  |  | 
COC(=O)[C@H](Cc1cccc(C(=N)N)c1)[C@@H](C)NC(=O)c1ccc(-c2cccc(CN(C)C)c2)cc1 | 2660 | 1 | 95 |  |  |  | 
COC(=O)[C@H](Cc1cccc(C(=N)N)c1)[C@@H](C)NC(=O)c1ccc(-c2cccc(CN)c2)cc1 |  |  | 69 |  | 1.7 |  | 0.33
CC[C@@H](NC(=O)c1ccc(-c2cccc(CN)c2)cc1)[C@@H](Cc1cccc(C(=N)N)c1)C(=O)OC | 2100 | 0.7 | 63 |  |  |  | 
